Legend:
Assay in all cases: Bliss excess, mean over the matrix (fraction); higher = more synergy
[1] = system: LU-165 (Small Cell Lung Carcinoma)
In short: (§1)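 Cell lines grown in DMEM/F12 or RPMI with 10% FBS were plated in 1536-well plates and held 24 hours at 37°C, 5% CO2 before 72 hours of exposure to two-drug dose matrices, with DMSO typically at 0.2%. CellTiter-Glo 2.0 luminescence gave viability, which was converted to inhibition. Vehicle wells were set to 0 and blank wells to 1. Combination Emax is the second-highest inhibition in the matrix, and Bliss excess is the observed combination effect minus the expected EA + EB − EA·EB, where EA and EB are the single-agent effects.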

[2] = system: EPLC-272H (Other Solid Carcinomas)
In short: as §1

IM-9 (Non-Cancerous) = system: IM-9 (Non-Cancerous)
In short: as §1

[3] = system: NCI-H2087 (Lung Adenocarcinoma)
In short: as §1

[4] = system: 22RV1 (Prostate Carcinoma)
In short: as §1

[5] = system: JIMT-1 (Breast Carcinoma)
In short: as §1

[6] = system: JHH-2 (Hepatocellular Carcinoma)
In short: as §1

RH-41 (Rhabdomyosarcoma) = system: RH-41 (Rhabdomyosarcoma)
In short: as §1

NB13 (Neuroblastoma) = system: NB13 (Neuroblastoma)
In short: as §1

5637 (Bladder Carcinoma) = system: 5637 (Bladder Carcinoma)
In short: as §1

[7] = system: KYSE-220 (Esophageal Squamous Cell Carcinoma)
In short: as §1

[8] = system: NCI-H2228 (Lung Adenocarcinoma)
In short: as §1

A204 (Rhabdomyosarcoma) = system: A204 (Rhabdomyosarcoma)
In short: as §1

KP-N-YN (Neuroblastoma) = system: KP-N-YN (Neuroblastoma)
In short: as §1

[9] = system: Jurkat (T-Lymphoblastic Leukemia)
In short: as §1

[10] = system: LS-411N (Colorectal Carcinoma)
In short: as §1

[11] = system: JHU-022 (Oral Cavity Carcinoma)
In short: as §1

[12] = system: GCT (Other Solid Carcinomas)
In short: as §1

[13] = system: JVM-2 (B-Cell Non-Hodgkin's Lymphoma)
In short: as §1

EW-16 (Ewing's Sarcoma) = system: EW-16 (Ewing's Sarcoma)
In short: as §1

Structure (SMILES) | Bliss excess [1] | Bliss excess [2] | Bliss excess (IM-9 (Non-Cancerous)) | Bliss excess [3] | Bliss excess [4] | Bliss excess [5] | Bliss excess [6] | Bliss excess (RH-41 (Rhabdomyosarcoma)) | Bliss excess (NB13 (Neuroblastoma)) | Bliss excess (5637 (Bladder Carcinoma)) | Bliss excess [7] | Bliss excess [8] | Bliss excess (A204 (Rhabdomyosarcoma)) | Bliss excess (KP-N-YN (Neuroblastoma)) | Bliss excess [9] | Bliss excess [10] | Bliss excess [11] | Bliss excess [12] | Bliss excess [13] | Bliss excess (EW-16 (Ewing's Sarcoma))
NC1(C(=O)N[C@@H](CCO)c2ccc(Cl)cc2)CCN(c2ncnc3[nH]ccc23)CC1 [Capivasertib] + CC(C)n1c(=O)n(C)c2cnc3cc(F)c(-c4ccc(OCCCN5CCCCC5)nc4)cc3c21 [AZD1390] (first compound max 10 µM, 7x7, partner max 0.3 µM) | -0.0456 | -0.13 | -0.0516 | -0.0378 | -0.0886 | -0.0118 | -0.0449 | -0.0364 | -0.0584 | -0.052 | -0.0659 | -0.0728 | -0.0575 | -0.112 | -0.047 | -0.0267 | -0.0564 | -0.0509 | -0.0662 | -0.079
CN(C)CCCOc1ccc(-c2ccc3ncc4c(c3c2)n(C2CCOCC2)c(=O)n4C)cn1 [AZD0156] + O=C(c1cc(Cc2n[nH]c(=O)c3ccccc23)ccc1F)N1CCN(C(=O)C2CC2)CC1 [Olaparib] (first compound max 3 µM, partner max 3 µM) | 0.0093 | -0.0122 | 0.275 | -0.043 | 0.0313 | -0.0233 | 0.0203 | 0.0128 | – | 0.138 | 0.191 | 0.0272 | -0.0255 | – | 0.174 | 0.0922 | -0.0079 | 0.0068 | 0.0457 | 0.0975
Cc1c2c(nn1C)CSCc1cc(n(C)n1)CSc1cc(c3ccccc3c1)OCCCc1c(C(=O)O)n(C)c3c-2c(Cl)ccc13 [AZD5991] + Cc1cc2ncnn2cc1Nc1ncc2c(n1)n(C1CCOCC1)c(=O)n2C [AZD7648] (first compound max 1 µM, 7x7, partner max 10 µM) | 0.0045 | -0.0575 | 0.014 | -0.0221 | -0.0528 | -0.0541 | -0.0272 | -0.0443 | 0.0153 | -0.0232 | 0.0083 | -0.0413 | -0.0466 | -0.0516 | -0.0234 | -0.0492 | -0.028 | -0.0702 | -0.046 | -0.0174
COc1cccc(OCCCN)c1-c1cc(Nc2cnc(C#N)cn2)n[nH]1 [Prexasertib] + O=C(c1cc(Cc2n[nH]c(=O)c3ccccc23)ccc1F)N1CCN(C(=O)C2CC2)CC1 [Olaparib] (first compound max 1 µM, 7x7, partner max 10 µM) | -0.128 | -0.0631 | 0.0046 | -0.11 | -0.072 | -0.0182 | -0.0428 | -0.061 | -0.0317 | -0.0729 | -0.0238 | -0.0834 | -0.0675 | -0.245 | -0.0054 | -0.271 | -0.0537 | 0.0068 | 0.0213 | 0.0036
CCc1c2c(nc3ccc(O)cc13)-c1cc3c(c(=O)n1C2)COC(=O)[C@]3(O)CC [SN-38] + O=C(c1cc(Cc2n[nH]c(=O)c3ccccc23)ccc1F)N1CCN(C(=O)C2CC2)CC1 [Olaparib] (first compound max 0.3 µM, 7x7, partner max 10 µM) | 0.0203 | 0.071 | 0.0871 | 0.017 | 0.0497 | 0.035 | -0.0442 | – | -0.017 | – | 0.0078 | – | – | -0.0038 | – | -0.012 | 0.0415 | 0.103 | 0.115 | 0.076
NC1(C(=O)N[C@@H](CCO)c2ccc(Cl)cc2)CCN(c2ncnc3[nH]ccc23)CC1 [Capivasertib] + Cn1cnc2c(F)c(Nc3ccc(Br)cc3Cl)c(C(=O)NOCCO)cc21 [Selumetinib] (first compound max 10 µM, 7x7, partner max 10 µM) | -0.0404 | 0.128 | -0.0169 | 0.016 | -0.0044 | 0.0449 | 0.016 | 0.0251 | -0.0062 | -0.0187 | 0.0644 | 0.017 | 0.0013 | 0.053 | 0.009 | 0.0005 | -0.0397 | -0.0354 | 0.0533 | 0.0097
CC1(C)CCC(CN2CCN(c3ccc(C(=O)NS(=O)(=O)c4ccc(NCC5CCOCC5)c([N+](=O)[O-])c4)c(Oc4cnc5[nH]ccc5c4)c3)CC2)=C(c2ccc(Cl)cc2)C1 [Venetoclax] + Cc1cc2ncnn2cc1Nc1ncc2c(n1)n(C1CCOCC1)c(=O)n2C [AZD7648] (first compound max 1 µM, 7x7, partner max 10 µM) | -0.0259 | -0.0656 | 0.0403 | -0.0467 | -0.0313 | -0.0248 | -0.069 | -0.0007 | 0.0559 | -0.0504 | -0.0371 | -0.0072 | -0.0172 | -0.0085 | 0.0164 | -0.0184 | -0.0392 | -0.046 | -0.025 | -0.0534
CN(CCO)CC[C@H](CSc1ccccc1)Nc1ccc(S(=O)(=O)NC(=O)c2ccc(N3CCC([C@@H](O)c4ccccc4-c4ccc(Cl)cc4)CC3)cc2)cc1S(=O)(=O)C(F)(F)F [AZD4320] + CN(C)CCCOc1ccc(-c2ccc3ncc4c(c3c2)n(C2CCOCC2)c(=O)n4C)cn1 [AZD0156] (first compound max 1 µM, 7x7, partner max 1 µM) | -0.025 | 0.0102 | -0.0621 | -0.0496 | -0.0416 | -0.0344 | -0.0486 | -0.0265 | -0.0371 | -0.0311 | -0.0385 | -0.0225 | -0.0468 | -0.0064 | -0.0012 | -0.0009 | -0.0584 | -0.0401 | 0.0248 | -0.003
CCN(CCO)CCCOc1ccc2c(Nc3cc(CC(=O)Nc4cccc(F)c4)[nH]n3)ncnc2c1 [AZD2811] + O=C(c1cc(Cc2n[nH]c(=O)c3ccccc23)ccc1F)N1CCN(C(=O)C2CC2)CC1 [Olaparib] (first compound max 1 µM, 7x7, partner max 10 µM) | -0.0454 | 0.0042 | -0.0191 | 0.0128 | 0.0017 | -0.0127 | -0.0748 | 0.0053 | 0.0211 | -0.0349 | 0.01 | -0.021 | 0.0034 | 0.0058 | 0.0634 | -0.0082 | -0.021 | 0.0585 | -0.125 | 0.0661
CS(=O)(=O)CCNCc1ccc(-c2ccc3ncnc(Nc4ccc(OCc5cccc(F)c5)c(Cl)c4)c3c2)o1 [Lapatinib] + C[C@@H](Oc1cc(-c2cnn(C3CCNCC3)c2)cnc1N)c1c(Cl)ccc(F)c1Cl [Crizotinib] (first compound max 10 µM, 7x7, partner max 10 µM) | -0.0858 | 0.0191 | -0.0378 | -0.0499 | -0.108 | 0.0444 | -0.0831 | -0.0054 | -0.0778 | -0.0285 | -0.0397 | 0.0163 | -0.0279 | -0.0084 | 0.0331 | -0.033 | -0.0541 | -0.0251 | -0.0131 | -0.0562
CCc1c2c(nc3ccc(O)cc13)-c1cc3c(c(=O)n1C2)COC(=O)[C@]3(O)CC [SN-38] + CN(C)CCCOc1ccc(-c2ccc3ncc4c(c3c2)n(C2CCOCC2)c(=O)n4C)cn1 [AZD0156] (first compound max 0.3 µM, 7x7, partner max 1 µM) | -0.028 | 0.0536 | 0.0891 | 0.0485 | 0.0403 | 0.0056 | 0.0204 | -0.0913 | 0.0313 | 0.0507 | 0.0574 | 0.0587 | 0.0736 | 0.0238 | 0.059 | 0.0079 | -0.0034 | 0.0183 | 0.0156 | 0.0385
C[C@@H]1COCCN1c1cc(C2([S@](C)(=N)=O)CC2)nc(-c2ccnc3[nH]ccc23)n1 [AZD6738] + O=C(c1cc(Cc2n[nH]c(=O)c3ccccc23)ccc1F)N1CCN(C(=O)C2CC2)CC1 [Olaparib] (first compound max 10 µM, 7x7, partner max 10 µM) | -0.0714 | -0.0682 | -0.0255 | -0.0008 | 0.0117 | -0.0247 | -0.0152 | -0.0201 | 0.0511 | -0.0011 | -0.0642 | -0.0305 | -0.0075 | -0.203 | 0.0592 | -0.105 | -0.0489 | -0.0027 | -0.0708 | 0.0402
COc1nnc2ccc(N3CCC(c4ccc(OCCN5CCN(C)C(=O)[C@H]5C)cc4)CC3)nn12 [AZD5153] + C=CCn1c(=O)c2cnc(Nc3ccc(N4CCN(C)CC4)cc3)nc2n1-c1cccc(C(C)(C)O)n1 [AZD1775] (first compound max 1 µM, partner max 1 µM) | 0.0026 | -0.0939 | -0.107 | -0.0368 | 0.0047 | -0.0054 | -0.1 | 0.0035 | -0.0645 | -0.0321 | -0.0622 | -0.0784 | -0.0887 | -0.135 | -0.0038 | -0.0334 | -0.0698 | 0.0168 | -0.0959 | -0.037
CN(C)CCCOc1ccc(-c2ccc3ncc4c(c3c2)n(C2CCOCC2)c(=O)n4C)cn1 [AZD0156] + C[C@@H]1COCCN1C2=NC(=NC(=C2)C3(CC3)[S@](=N)(=O)C)C4=C5C=CNC5=NC=C4 [AZD6738] (first compound max 1 µM, 7x7, partner max 10 µM) | -0.0515 | 0.0156 | 0.05 | -0.0008 | -0.0678 | 0.0042 | -0.0249 | 0.0593 | 0.058 | -0.0155 | 0.0134 | -0.024 | -0.038 | 0.0249 | 0.1 | -0.0145 | -0.0103 | 0.0062 | 0.0025 | -0.0074
C=CCn1c(=O)c2cnc(Nc3ccc(N4CCN(C)CC4)cc3)nc2n1-c1cccc(C(C)(C)O)n1 [AZD1775] + C1CN(CCC1(C(=O)N[C@@H](CCO)C2=CC=C(C=C2)Cl)N)C3=NC=NC4=C3C=CN4 [Capivasertib] (first compound max 3 µM, partner max 3 µM) | -0.117 | -0.0011 | -0.0157 | -0.0287 | -0.0348 | 0.0069 | -0.122 | -0.0387 | – | 0.0064 | -0.0206 | -0.0181 | -0.0131 | – | 0.185 | -0.0551 | -0.022 | 0.004 | -0.0591 | -0.0481
